Source: PubChem BioAssay (NCI)
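Protocol summary: plate cells (96-well), add compound at 5 concentrations, incubate 48 h, interpolate endpoints linearly. GI50: concentration for 50% inhibition of growth. The concentration for full growth arrest is given as TGI.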

Assays:
Assay in all cases: NCI anticancer screen, dose series, 48 h
786-0 renal = test system: 786-0 renal
A498 renal = test system: A498 renal
A549 NSCLC = test system: A549 NSCLC
ACHN renal = test system: ACHN renal
BT-549 breast = test system: BT-549 breast
CAKI-1 renal = test system: CAKI-1 renal
CCRF-CEM leukemia = test system: CCRF-CEM leukemia
COLO 205 colon = test system: COLO 205 colon
DU-145 prostate = test system: DU-145 prostate
EKVX NSCLC = test system: EKVX NSCLC
HCC-2998 colon = test system: HCC-2998 colon
HCT-116 colon = test system: HCT-116 colon
HCT-15 colon = test system: HCT-15 colon
HL-60(TB) leukemia = test system: HL-60(TB) leukemia
HOP-62 NSCLC = test system: HOP-62 NSCLC
HOP-92 NSCLC = test system: HOP-92 NSCLC
HS 578T breast = test system: HS 578T breast
HT29 colon = test system: HT29 colon
IGROV1 ovarian = test system: IGROV1 ovarian
K-562 leukemia = test system: K-562 leukemia
KM12 colon = test system: KM12 colon
LOX IMVI melanoma = test system: LOX IMVI melanoma
M14 melanoma = test system: M14 melanoma
MALME-3M melanoma = test system: MALME-3M melanoma
MCF7 breast = test system: MCF7 breast
MDA-MB-231 breast = test system: MDA-MB-231 breast
MDA-MB-435 = test system: MDA-MB-435
MOLT-4 leukemia = test system: MOLT-4 leukemia

SMILES: COc1ccc2c(c1OC)-c1c(c3ccc([N+](=O)[O-])cc3c(=O)n1CCCN)C2=O
- GI50 (786-0 renal): 4.76 µM
- TGI (786-0 renal): 9.22 µM
- GI50 (A498 renal): 3.03 µM
- TGI (A498 renal): 14.3 µM
- GI50 (A549 NSCLC): 4.37 µM
- TGI (A549 NSCLC): 9.27 µM
- GI50 (ACHN renal): 0.749 µM
- TGI (ACHN renal): 3.33 µM
- GI50 (BT-549 breast): 4.19 µM
- TGI (BT-549 breast): 9.24 µM
- GI50 (CAKI-1 renal): 9.49 µM
- TGI (CAKI-1 renal): 24.7 µM
- GI50 (CCRF-CEM leukemia): 1.27 µM
- TGI (CCRF-CEM leukemia): 3.64 µM
- GI50 (COLO 205 colon): > 100 µM
- TGI (COLO 205 colon): > 100 µM
- GI50 (DU-145 prostate): 3.36 µM
- TGI (DU-145 prostate): 7.8 µM
- GI50 (EKVX NSCLC): 4.98 µM
- TGI (EKVX NSCLC): 11 µM
- GI50 (HCC-2998 colon): 3.87 µM
- TGI (HCC-2998 colon): 7.8 µM
- GI50 (HCT-116 colon): 4.99 µM
- TGI (HCT-116 colon): 9.23 µM
- GI50 (HCT-15 colon): 3.37 µM
- TGI (HCT-15 colon): 7.11 µM
- GI50 (HL-60(TB) leukemia): 1.35 µM
- TGI (HL-60(TB) leukemia): 2.63 µM
- GI50 (HOP-62 NSCLC): 10.7 µM
- TGI (HOP-62 NSCLC): 23.9 µM
- GI50 (HOP-92 NSCLC): 12.3 µM
- TGI (HOP-92 NSCLC): 27.1 µM
- GI50 (HS 578T breast): 5.32 µM
- TGI (HS 578T breast): 12 µM
- GI50 (HT29 colon): 1.6 µM
- TGI (HT29 colon): 8 µM
- GI50 (IGROV1 ovarian): 2.02 µM
- TGI (IGROV1 ovarian): 6.78 µM
- GI50 (K-562 leukemia): 1.01 µM
- TGI (K-562 leukemia): 3.94 µM
- GI50 (KM12 colon): 4.31 µM
- TGI (KM12 colon): 10.7 µM
- GI50 (LOX IMVI melanoma): 3.18 µM
- TGI (LOX IMVI melanoma): 7.26 µM
- GI50 (M14 melanoma): 7.27 µM
- TGI (M14 melanoma): 20.8 µM
- GI50 (MALME-3M melanoma): 4.97 µM
- TGI (MALME-3M melanoma): 10.5 µM
- GI50 (MCF7 breast): 1.89 µM
- TGI (MCF7 breast): 13.9 µM
- GI50 (MDA-MB-231 breast): 1.87 µM
- TGI (MDA-MB-231 breast): 3.95 µM
- GI50 (MDA-MB-435): 12.7 µM
- TGI (MDA-MB-435): 28.2 µM
- GI50 (MOLT-4 leukemia): 0.692 µM
- TGI (MOLT-4 leukemia): 3.68 µM
